Bounds are passed on as bounds.

In one assay the test system is T. brucei. The experiment in a line: Growth inhibition assay of T. brucei cell cultures (Alamar Blue, 48 h). Type of assay: cell-based. The following applies: Trypanosoma brucei; read-out: B) T. brucei EC50. (In general: Resazurin is reduced to fluorescent resorufin, in cell work by metabolically active cells.)
The next assay has as its target MetRS (T. brucei) (Trypanosoma brucei brucei, UniProt Q38C91). The assay can be described thus: MetRS (T. brucei) ATP depletion assay using Kinase-Glo. The format is biochemical. In general terms: Kinase-Glo reads ATP consumption through a luciferase reaction.

MetRS (T. brucei), sequence (Q38C91 entry or part of it): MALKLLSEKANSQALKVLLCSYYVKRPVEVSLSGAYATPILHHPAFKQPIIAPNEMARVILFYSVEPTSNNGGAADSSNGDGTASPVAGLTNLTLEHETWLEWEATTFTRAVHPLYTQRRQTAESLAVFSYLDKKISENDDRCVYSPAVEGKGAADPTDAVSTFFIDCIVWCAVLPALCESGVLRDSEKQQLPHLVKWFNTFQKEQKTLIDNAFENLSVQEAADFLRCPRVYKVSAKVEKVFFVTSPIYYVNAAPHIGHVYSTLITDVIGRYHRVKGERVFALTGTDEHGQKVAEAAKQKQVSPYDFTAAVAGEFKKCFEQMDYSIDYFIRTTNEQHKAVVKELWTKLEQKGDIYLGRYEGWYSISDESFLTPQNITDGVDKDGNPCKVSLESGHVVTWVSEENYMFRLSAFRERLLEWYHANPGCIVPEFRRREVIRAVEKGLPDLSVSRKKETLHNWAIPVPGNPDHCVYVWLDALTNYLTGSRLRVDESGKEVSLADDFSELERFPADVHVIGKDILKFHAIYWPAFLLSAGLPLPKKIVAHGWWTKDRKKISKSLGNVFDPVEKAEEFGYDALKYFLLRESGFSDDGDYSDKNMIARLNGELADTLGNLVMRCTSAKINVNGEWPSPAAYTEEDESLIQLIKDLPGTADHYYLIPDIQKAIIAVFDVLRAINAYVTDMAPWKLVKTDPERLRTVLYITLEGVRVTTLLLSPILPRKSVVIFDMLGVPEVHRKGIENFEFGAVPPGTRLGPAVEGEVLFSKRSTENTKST

Turning to `CC(Cc1nc2ccc(C(F)(F)F)cc2[nH]1)NCc1cc(Cl)cc(Cl)c1` (stereo not drawn) [Compound 1825, [(3,5-dichlorophenyl)methyl]({1-[6-(trifluoromethyl)-1H-1,3-benzodiazol-2-yl]propan-2-yl})amine], the EC50 in the assay with T. brucei was determined as 3650 nM. In addition, the IC50 against MetRS (T. brucei) is 1560 nM.
For the compound `CC(Cc1nc2cc3ccccc3cc2[nH]1)NCc1cc(Cl)cc(Cl)c1` (stereo not drawn) [Compound 1826, [(3,5-dichlorophenyl)methyl](1-{1H-naphtho[2,3-d]imidazol-2-yl}propan-2-yl)amine], the EC50 with T. brucei was found to be 7940 nM. Further, the IC50 against MetRS (T. brucei) stood at 454 nM.
For `CC[C@@H](Cc1nc2ccc(Cl)cc2[nH]1)NCc1cc(Cl)cc(Cl)c1` [Compound 1827, [(2S)-1-(6-chloro-1H-1,3-benzodiazol-2-yl)butan-2-yl][(3,5-dichlorophenyl)methyl]amine] the same measures were 5020 nM and 390 nM.
For `CC(C)[C@@H](Cc1nc2ccc(Cl)cc2[nH]1)NCc1cc(Cl)cc(Cl)c1` [Compound 1828, [(2R)-1-(6-chloro-1H-1,3-benzodiazol-2-yl)-3-methylbutan-2-yl][(3,5-dichlorophenyl)methyl]amine] the same measures were 7410 nM and over 10000 nM.
For `Clc1cc(Cl)cc(CNCCCc2nc3ccc(Cl)cc3[nH]2)c1` [Compound 1832, [3-(6-chloro-1H-1,3-benzodiazol-2-yl)propyl][(3,5-dichlorophenyl)methyl]amine] the same measures were 2150 nM and 243 nM.
Regarding `CC(=O)N(Cc1cc(Cl)cc(Cl)c1)N1CCCC(c2nc3cc(F)ccc3[nH]2)C1` (stereo not drawn) [Compound 1833, N-[(3,5-dichlorophenyl)methyl]-N-[3-(5-fluoro-1H-1,3-benzodiazol-2-yl)piperidin-1-yl]acetamide], the EC50 with T. brucei is over 20000 nM. Besides, the IC50 at MetRS (T. brucei) is over 10000 nM.
For `CC(=O)N(Cc1ccc(Cl)cc1Cl)C1CCCC(c2nc3nc(F)ccc3[nH]2)C1` (stereo not drawn) [Compound 1836, N-(2,4-dichlorobenzyl)-N-(3-(5-fluoro-1H-imidazo[4,5-b]pyridin-2-yl)cyclohexyl)acetamide] the same measures were 7630 nM and 1430 nM.
For `Clc1ccc(CN2CCC[C@H](c3nc4cc(Cl)ccc4[nH]3)C2)c(Cl)c1` [Compound 1837, (S)-5-chloro-2-(1-(2,4-dichlorobenzyl)piperidin-3-yl)-1H-benzo[d]imidazole] the same measures were 1340 nM and 119 nM.
For `Clc1cc(Cl)cc(CN2CCC[C@@H](c3nc4cc(Cl)ccc4[nH]3)C2)c1` [Compound 1838, (R)-5-chloro-2-(1-(3,5-dichlorobenzyl)piperidin-3-yl)-1H-benzo[d]imidazole] the same measures were 8570 nM and over 10000 nM.
Turning to `Fc1ccc2[nH]c(C3CCCC(NCc4cc(Cl)cc(Cl)c4)C3)nc2c1` (stereo not drawn) [Compound 1839, N-(3,5-dichlorobenzyl)-3-(5-fluoro-1H-benzo[d]imidazol-2-yl) cyclohexanamine], the EC50 with T. brucei is 2320 nM. The midpoint of inhibition against MetRS (T. brucei), the IC50, lay at 3680 nM.
For `Clc1cc(Cl)cc(CNC2CCCC(c3nc4cc(Cl)ccc4[nH]3)C2)c1` (stereo not drawn) [Compound 1840, 3-(5-chloro-1H-benzo[d]imidazol-2-yl)-N-(3,5-dichlorobenzyl) cyclohexanamine] the same measures were 1950 nM and 580 nM.
For `Clc1cc(Cl)cc(CNC2CCCC(c3nc4cc(Cl)cnc4[nH]3)C2)c1` (stereo not drawn) [Compound 1841, 3-(6-chloro-3H-imidazo[4,5-b]pyridin-2-yl)-N-(3,5-dichlorobenzyl) cyclohexanamine] the same measures were 3690 nM and 6300 nM.
For `CC(=O)N(Cc1cc(Cl)cc(Cl)c1)C1CCCC(c2nc3cc(Cl)cnc3[nH]2)C1` (stereo not drawn) [Compound 1842, N-(3-(6-chloro-3H-imidazo[4,5-b]pyridin-2-yl)cyclohexyl)-N-(3,5-dichlorobenzyl)acetamide] the same measures were 8580 nM and over 10000 nM.
With `Clc1cc(Cl)cc(CN[C@H]2CCN(c3nc4ccc(Cl)nc4[nH]3)C2)c1` [Compound 1845, (3S)-1-{5-chloro-3H-imidazo[4,5-b]pyridin-2-yl}-N-[(3,5-dichlorophenyl)methyl]pyrrolidin-3-amine], in the assay with T. brucei, the EC50 was determined as 1540 nM. Moreover, the IC50 at MetRS (T. brucei) came out at 47 nM.
For `Clc1ccc(CN[C@H]2CCN(c3nc4ccc(Cl)nc4[nH]3)C2)c(Cl)c1` [Compound 1846, (3S)-1-{5-chloro-3H-imidazo[4,5-b]pyridin-2-yl}-N-[(2,4-dichlorophenyl)methyl]pyrrolidin-3-amine] the same measures were 11000 nM and 1640 nM.
For `Clc1cc(Cl)cc(CN[C@@H]2CCN(c3nc4ccc(Cl)nc4[nH]3)C2)c1` [Compound 1847, (3R)-1-{5-chloro-3H-imidazo[4,5-b]pyridin-2-yl}-N-[(3,5-dichlorophenyl)methyl]pyrrolidin-3-amine] the same measures were 9010 nM and 696 nM.
As to `Clc1ccc(CN[C@@H]2CCN(c3nc4ccc(Cl)nc4[nH]3)C2)c(Cl)c1` [Compound 1848, (3R)-1-{5-chloro-3H-imidazo[4,5-b]pyridin-2-yl}-N-[(2,4-dichlorophenyl}methyl]pyrrolidin-3-amine], in the assay on T. brucei, the EC50 was 10600 nM. Moreover, the IC50 on MetRS (T. brucei) stood at 847 nM.
For `Clc1cc(Cl)cc(CNCCNc2nc3ncc(Cl)cc3[nH]2)c1` [Compound 1850, [2-({6-chloro-1H-imidazo[4,5-b]pyridin-2-yl}amino)ethyl][(3,5-dichlorophenyl)methyl]amine] the same measures were 3870 nM and 385 nM.
For `O=C(Cc1cc(Cl)cc(Cl)c1)NCc1nc2ccc(Cl)cc2[nH]1` [Compound 1851, N-((6-chloro-1H-benzo[d]imidazol-2-yl)methyl)-2-(3,5-dichlorophenyl)acetamide] the same measures were 3380 nM and 81 nM.
On to `O=C(Cc1ccc(Cl)cc1Cl)NCc1nc2ccc(Cl)cc2[nH]1` [Compound 1852, N-[(6-chloro-1H-1,3-benzodiazol-2-yl)methyl]-2-(2,4-dichlorophenyl)acetamide], for which, in the assay with T. brucei, the concentration giving a half-maximal response (EC50) worked out at 5540 nM. Also, the IC50 against MetRS (T. brucei) was 75 nM.
For `Clc1cc(Cl)cc(CNCc2nc3ccc(Br)cc3[nH]2)c1` [Compound 1853, N-(3,5-dichlorobenzyl)(6-bromo-1H-benzo[d]imidazol-2-yl)methanamine] the same measures were over 20000 nM and over 10000 nM.
For `Clc1cc(Cl)cc(CN[C@@H]2CCC[C@H](c3nc4nc(Cl)ccc4[nH]3)C2)c1` [Compound 1854, (1R,3S)-3-(5-chloro-1H-imidazo[4,5-b]pyridin-2-yl)-N-(3,5-dichlorobenzyl)cyclohexanamine] the same measures were 580 nM and 106 nM.
For `Clc1cc(Cl)cc(CN[C@@H]2CCCN(c3nc4nc(Cl)ccc4[nH]3)C2)c1` [Compound 1855, (R)-1-(5-chloro-1H-imidazo[4,5-b]pyridin-2-yl)-N-(3,5-dichlorobenzyl) piperidin-3-amine], in the assay with T. brucei, the EC50 was found to be 999 nM. It took 192 nM to reach half-maximal inhibition against MetRS (T. brucei) (IC50).
`Clc1ccc(CNC2CCCN(c3nc4nc(Cl)ccc4[nH]3)C2)c(Cl)c1` (stereo not drawn) [Compound 1857, 1-(5-chloro-1H-imidazo[4,5-b]pyridin-2-yl)-N-(2,4-dichlorobenzyl) piperidin-3-amine]: in the assay on T. brucei, the EC50 is 1480 nM. For the same compound, the midpoint of inhibition against MetRS (T. brucei), the IC50, lay at 72 nM.
For `Fc1ccc2[nH]c(CCCNCc3cc(Cl)cc(Cl)c3)nc2n1` [Compound 1858, N-(3,5-dichlorobenzyl)-3-(5-fluoro-1H-imidazo[4,5-b]pyridin-2-yl)propan-1-amine] the same measures were 1890 nM and 340 nM.
For `CC(=O)N(Cc1cc(Cl)cc(Cl)c1)[C@@H]1CCC[C@H](c2nc3nc(Cl)ccc3[nH]2)C1` [Compound 1859, N-((1R,3S)-3-(5-chloro-1H-imidazo[4,5-b]pyridin-2-yl)cyclohexyl)-N-(3,5-dichlorobenzyl)acetamide] the same measures were over 20000 nM and 1430 nM.
For `CC(=O)N(Cc1cc(Cl)cc(Cl)c1)C1CCCC(c2nc3cc(F)ccc3[nH]2)C1` (stereo not drawn) [Compound 1860, N-(3,5-dichlorobenzyl)-N-(3-(5-fluoro-1H-benzo[d]imidazol-2-yl)cyclohexyl)acetamide] the same measures were 8570 nM and 6900 nM.
`CC(=O)N(Cc1cc(Cl)cc(Cl)c1)C1CCCC(c2nc3cc(Cl)ccc3[nH]2)C1` (stereo not drawn) [Compound 1861, N-(3-(5-chloro-1H-benzo[d]imidazol-2-yl)cyclohexyl)-N-(3,5-dichlorobenzyl)acetamide]: in the assay on T. brucei, the EC50 came out at 4440 nM. At MetRS (T. brucei), this compound yielded an IC50 of 1470 nM.
For `Clc1cc(Cl)cc(NCC2CCCN(c3nc4nc(Cl)c(Br)cc4[nH]3)C2)c1` (stereo not drawn) [Compound 1863, N-((1-(6-bromo-5-chloro-1H-imidazo[4,5-b]pyridin-2-yl)piperidin-3-yl)methyl)-3,5-dichloroaniline] the same measures were 3290 nM and over 10000 nM.
Regarding `Clc1cc(Cl)cc(CNC2CN(c3nc4nc(Cl)ccc4[nH]3)C2)c1` [Compound 1864, 1-{5-chloro-1H-imidazo[4,5-b]pyridin-2-yl}-N-[(3,5-dichlorophenyl)methyl]azetidin-3-amine], the EC50 with T. brucei was over 20000 nM. The compound further showed an IC50 on MetRS (T. brucei) of 2170 nM.
For `Clc1cc(Cl)cc(CNC2CN(c3nc4nc(Cl)c(Br)cc4[nH]3)C2)c1` [Compound 1865, 1-{6-bromo-5-chloro-1H-imidazo[4,5-b]pyridin-2-yl}-N-[(3,5-dichlorophenyl)methyl]azetidin-3-amine] the same measures were 6630 nM and over 10000 nM.
For `Clc1cc(Cl)cc(CN2CCN(c3nc4nc(Cl)ccc4[nH]3)CC2)c1` [Compound 1866, 5-chloro-2-(4-(3,5-dichlorobenzyl)piperazin-1-yl)-1H-imidazo[4,5-b]pyridine] the same measures were over 20000 nM and over 10000 nM.
Regarding `Clc1cc(Cl)cc(CNC2CCN(c3nc4nc(Cl)ccc4[nH]3)CC2)c1` [Compound 1867, 1-(5-chloro-1H-imidazo[4,5-b]pyridin-2-yl)-N-(3,5-dichlorobenzyl)piperidin-4-amine], the EC50 in the assay on T. brucei was over 20000 nM. On MetRS (T. brucei), this compound gave an IC50 of 4970 nM.

A word on the EC50: it is the midpoint of the concentration-response curve. As a reminder, the IC50 is the concentration that gives 50% inhibition.

The values are drawn from patent US10913736B2 (UNIVERSITY OF WASHINGTON, priority 2014, dated 2021).
